Activity calls are given as the source filed them. No rule for the calls is given here. Bounds are passed on as bounds.

For this assay, the target named is Disintegrin and metalloproteinase domain-containing protein 10 (Homo sapiens) (UniProt O14672). Put plainly: ADAM10 protease inhibitors, dose response, selectivity assay for ADAM17 exosite inhibitor project, biochemical, FRET peptide substrate, recombinant human ADAM10 (AID 743259). Particulars: Recombinant ADAM10, FRET peptide substrate cleavage.
Sequence of Disintegrin and metalloproteinase domain-containing protein 10 (Homo sapiens) (O14672 214-748 limits assumed): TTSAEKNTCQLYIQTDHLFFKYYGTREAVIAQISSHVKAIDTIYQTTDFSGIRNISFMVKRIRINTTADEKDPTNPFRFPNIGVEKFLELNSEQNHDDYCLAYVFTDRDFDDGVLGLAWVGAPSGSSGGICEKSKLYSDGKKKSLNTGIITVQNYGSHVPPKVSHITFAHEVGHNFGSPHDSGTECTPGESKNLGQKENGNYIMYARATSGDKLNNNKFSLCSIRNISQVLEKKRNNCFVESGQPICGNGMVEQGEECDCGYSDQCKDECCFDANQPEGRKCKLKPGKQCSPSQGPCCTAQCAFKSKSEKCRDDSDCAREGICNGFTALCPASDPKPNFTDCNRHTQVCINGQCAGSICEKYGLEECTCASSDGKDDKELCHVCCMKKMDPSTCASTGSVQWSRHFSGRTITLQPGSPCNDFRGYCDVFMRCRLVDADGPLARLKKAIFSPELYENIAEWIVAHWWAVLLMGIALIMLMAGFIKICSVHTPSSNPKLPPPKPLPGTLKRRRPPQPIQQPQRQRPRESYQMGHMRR

The IC50 is the midpoint of a concentration-inhibition curve. As for `COCCN=c1scc(-c2cc(OC)c(OC)c(OC)c2)n1/N=C/c1c(C)[nH]c2ccccc12`, the IC50 is > 69.5 µM (inactive). On to `C/C(=N\N=C(/N)SC1CC(=O)N(c2ccccc2)C1=O)c1cccs1` (centres undefined), for which the IC50 was 9.96 µM. On to `Cc1ccccc1NC(C)C(=O)N/N=C/c1ccccc1OCc1cccc(Br)c1` (centres undefined), for which the IC50 was > 69.5 µM (inactive). As to `CC(=O)c1cccc(NC(=O)C(OC(=O)c2ccccc2NS(=O)(=O)c2cccs2)c2ccccc2)c1` (centres undefined), the IC50 was > 69.5 µM (inactive). Regarding `C/C(=N\N=C(/N)SC1CC(=O)N(c2ccc(Br)cc2)C1=O)c1cccs1` (centres undefined), the IC50 result was “inactive”. Take `Oc1c(C(c2ccccn2)N2CCCCC2)cc(Cl)c2cccnc12` (centres undefined): the IC50 is 9.05 µM. With `COCCN=c1scc(-c2cc(OC)ccc2OC)n1/N=C/c1c[nH]c2ccccc12`, the IC50 is > 69.5 µM (inactive). As to `CCCOC(=O)c1ccc(Oc2cn[nH]c2-c2ccc(OCC)cc2O)cc1`, the IC50 result was “inactive”.

As for `O=C1OCCN1C(=O)[C@H]1[C@H](c2ccc([N+](=O)[O-])cc2)C(c2ccccc2)=NN1c1ccc(Br)cc1`, the IC50 is > 69.5 µM (inactive). With `CC(C)(C)c1ccc(OCc2nc(-c3ccccn3)no2)c(Br)c1` the entry was “inactive”.

Regarding `C=C(C)CN1CCN(S(=O)(=O)c2ccc(C)c(N(C)S(=O)(=O)c3ccc(C)cc3)c2C)CC1`, the IC50 was > 69.5 µM (inactive).

With `O=C(CC1SC(=O)N(c2ccccc2)C1=O)Nc1ccccc1` (centres undefined), the IC50 entry is “inactive”. In the case of `COC(=O)c1cccc(Cn2c(Cl)c(/C=N/Nc3ccccc3C)sc2=O)c1`, the IC50 is > 69.5 µM (inactive).

Take `CCOc1ccc(NC(=O)CC2SC(=O)N(c3ccccc3)C2=O)cc1` (centres undefined): the IC50 entry was “inactive”. As for `CC(=NNC(=O)CSc1nnc(-c2ccc(C(C)(C)C)cc2)n1-c1ccccc1)c1cccc2ccccc12`, the IC50 is > 69.5 µM (inactive). Turning to `COc1ccc(N(CC(O)Cn2c3ccccc3c3ccccc32)S(=O)(=O)c2ccccc2)cc1` (centres undefined), the IC50 was > 69.5 µM (inactive).

For the molecule `O=C(NCC1CCCO1)C(c1cccs1)N(Cc1ccccc1)C(=O)c1ccc(-c2ccccc2)[nH]1` (centres undefined), the IC50 was > 69.5 µM (inactive). Consider `COc1cccc(C2C(C#N)=C(N)Oc3c2oc(CO)cc3=O)c1` (centres undefined), for which the IC50 is > 69.5 µM (inactive). For `Cc1cc(SCC(=O)c2ccc(O)c(O)c2)n2nc(C)c(-c3ccccc3)c2n1`, the IC50 was > 69.5 µM (inactive).

These data come from PubChem BioAssay AID743259 (The Scripps Research Institute Molecular Screening Center, 2014).
